From US11739100B2, “2,3-dihydro-1h-imidazo{1,2-a}pyrimidin-5-one and this 1,2,3,4-tetrahydropyrimido{1,2-a}pyrimidin-6-one derivatives comprising a substituted morpholine, preparation thereof and pharmaceutical use thereof” (SANOFI, priority 2012, dated 2023)

Target: T1, recombinant Vps34 (Homo sapiens, UniProt Q8NEB9)
T1 construct: purchased Invitrogen PV5126
Test: Phosphorylation of phosphatidylinositol (PI) by Vps34 in vitro, ADP detected by TR-FRET (HTRF Transcreener ADP)
Format: biochemical
Details: 10 μM ATP, 55 μg/ml PI, approximately 3 nM Vps34, 1 hour at ambient temperature; absolute IC50, mean of two independent experiments; read-out: IC50 activity range

T1 sequence (Q8NEB9 whole entry): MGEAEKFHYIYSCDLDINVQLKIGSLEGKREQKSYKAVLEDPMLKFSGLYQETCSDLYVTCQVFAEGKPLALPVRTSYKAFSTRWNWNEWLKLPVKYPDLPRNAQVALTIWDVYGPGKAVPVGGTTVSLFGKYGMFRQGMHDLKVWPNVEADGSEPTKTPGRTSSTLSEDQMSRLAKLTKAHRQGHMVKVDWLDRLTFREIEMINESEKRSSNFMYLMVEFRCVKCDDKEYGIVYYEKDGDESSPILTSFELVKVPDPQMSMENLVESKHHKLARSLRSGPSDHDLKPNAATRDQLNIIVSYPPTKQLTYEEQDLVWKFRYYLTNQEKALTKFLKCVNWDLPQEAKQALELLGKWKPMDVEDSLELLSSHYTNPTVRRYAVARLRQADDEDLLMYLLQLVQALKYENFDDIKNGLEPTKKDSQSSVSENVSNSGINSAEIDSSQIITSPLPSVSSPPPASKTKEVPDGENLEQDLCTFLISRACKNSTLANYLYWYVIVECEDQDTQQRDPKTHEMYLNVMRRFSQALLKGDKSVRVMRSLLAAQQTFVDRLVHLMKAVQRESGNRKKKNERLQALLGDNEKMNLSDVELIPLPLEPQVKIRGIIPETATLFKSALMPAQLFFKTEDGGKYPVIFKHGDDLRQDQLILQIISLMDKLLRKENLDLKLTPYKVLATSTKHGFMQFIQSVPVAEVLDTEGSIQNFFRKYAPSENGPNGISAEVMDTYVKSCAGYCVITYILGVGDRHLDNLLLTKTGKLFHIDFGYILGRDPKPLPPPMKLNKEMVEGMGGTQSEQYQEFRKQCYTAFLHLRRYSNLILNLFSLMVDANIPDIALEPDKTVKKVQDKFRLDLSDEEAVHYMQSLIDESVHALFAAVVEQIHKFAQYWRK

Compound | IC50 [nM]
C[C@@H]1COCCN1c1nc2n(c(=O)c1F)CC[C@@H](C(F)(F)F)N2CC(=O)N1CC2(COC2)C1 [Example 293, (S)-3-Fluoro-2-((R)-3-methylmorpholin-4-yl)-9-[2-(2-oxa-6-aza-spiro[3.3]hept-6-yl)-2-oxoethyl]-8-trifluoromethyl-6,7,8,9-tetrahydro-pyrimido[1,2-a]-pyrimidin-4-one] | < 10
CC1COCC(C)N1c1cc(=O)n2c(n1)N(CC(=O)c1ccccc1)[C@H](C(F)(F)F)CC2 (stereo in doubt) [Example 153, (S)-2-((3S,5S)-3,5-Dimethylmorpholin-4-yl)-9-(2-oxo-2-phenyl-ethyl)-8-trifluoromethyl-6,7,8,9-tetrahydro-pyrimido[1,2-a]-pyrimidin-4-one] | < 10
C[C@@H]1COCCN1c1cc(=O)n2c(n1)N(Cc1cnc(Cl)s1)[C@H](C(F)(F)F)CC2 [Example 34, (S)-9-(2-Chloro-thiazol-5-ylmethyl)-2-((R)-3-methyl-morpholin-4-yl)-8-trifluoromethyl-6,7,8,9-tetrahydro-pyrimido[1,2-a]-pyrimidin-4-one] | 10 to 100
C[C@@H]1COCCN1c1cc(=O)n2c(n1)N(c1ccncc1)[C@H](C(F)(F)F)CC2 [Example 198, (S)-2-((R)-3-Methyl-morpholin-4-yl)-9-pyridin-4-yl-8-trifluoromethyl-6,7,8,9-tetrahydro-pyrimido[1,2-a]-pyrimidin-4-one] | < 10
C[C@@H]1COC[C@@H](C)N1c1cc(=O)n2c(n1)N(Cc1ncco1)[C@H](C(F)(F)F)CC2 [Example 158, (S)-2-((3R,5R)-3,5-Dimethylmorpholin-4-yl)-9-oxazol-2-yl-methyl-8-trifluoromethyl-6,7,8,9-tetrahydro-pyrimido[1,2-a]-pyrimidin-4-one] | < 10
C[C@@H]1COCCN1c1cc(=O)n2c(n1)N(Cc1cncc(F)c1)[C@H](C(F)(F)F)CC2 [Example 94, (S)-9-(5-Fluoropyridin-3-ylmethyl)-2-((R)-3-methylmorpholin-4-yl)-8-trifluoromethyl-6,7,8,9-tetrahydro-pyrimido[1,2-a]-pyrimidin-4-one] | < 10
C[C@@H]1COCCN1c1cc(=O)n2c(n1)N(Cc1ccc(Cl)s1)[C@H](C(F)(F)F)CC2 [Example 98, (S)-9-(5-Chloro-thiophen-2-ylmethyl)-2-((R)-3-methyl-morpholin-4-yl)-8-trifluoromethyl-6,7,8,9-tetrahydro-pyrimido[1,2-a]-pyrimidin-4-one] | < 10
C[C@@H]1COCCN1c1cc(=O)n2c(n1)N(CC1CCCO1)[C@H](C(F)(F)F)CC2 (single isomer, unassigned) [Example 136] | < 10
CC(C)C(=O)CN1c2nc(N3CCOC[C@H]3C)c(F)c(=O)n2C[C@@]1(C)C(F)(F)F [Example 185, (S)-6-Fluoro-2-methyl-7-((R)-3-methyl-morpholin-4-yl)-1-(3-methyl-2-oxobutyl)-2-trifluoromethyl-2,3-dihydro-1H-imidazo[1,2-a]-pyrimidin-5-one] | < 10
Cc1cc(CN2c3nc(N4CCOC[C@H]4C)cc(=O)n3CC[C@H]2C(F)(F)F)on1 [Example 101, (S)-9-(3-Methyl-isoxazol-5-ylmethyl)-2-((R)-3-methyl-morpholin-4-yl)-8-trifluoromethyl-6,7,8,9-tetrahydro-pyrimido[1,2-a]-pyrimidin-4-one] | < 10
C[C@@H]1COCCN1c1cc(C(=O)CN2c3nc(N4CCOC[C@H]4C)cc(=O)n3CC[C@H]2C(F)(F)F)ccn1 [Example 303, (S)-2-((R)-3-Methyl-morpholin-4-yl)-9-{2-[2-((R)-3-methyl-morpholin-4-yl)pyridin-4-yl]-2-oxoethyl}-8-trifluoromethyl-6,7,8,9-tetrahydropyrimido[1,2-a]pyrimidin-4-one] | < 10
CC(C)CC(=O)CN1c2nc(N3CCOC[C@H]3C)cc(=O)n2CC[C@H]1C(F)(F)F [Example 276, (S)-2-((R)-3-Methyl-morpholin-4-yl)-9-(4-methyl-2-oxo-pentyl)-8-trifluoromethyl-6,7,8,9-tetrahydro-pyrimido[1,2-a]-pyrimidin-4-one] | < 10
C[C@@H]1COCCN1c1nc2n(c(=O)c1F)CC[C@@H](C(F)(F)F)N2CCO [Example 204, (S)-3-Fluoro-9-(2-hydroxyethyl)-2-((R)-3-methylmorpholin-4-yl)-8-trifluoromethyl-6,7,8,9-tetrahydro-pyrimido[1,2-a]-pyrimidin-4-one] | < 10
CC1CN(c2cc(=O)n3c(n2)N(CC(=O)c2ccccn2)[C@H](C(F)(F)F)CC3)CCO1 (single isomer, unassigned) [Example 174] | 10 to 100
C[C@@H]1COCCN1c1cc(=O)n2c(n1)N(c1ccc(C3CCC3)nc1)[C@H](C(F)(F)F)CC2 [Example 88, (S)-9-(6-Cyclobutyl-pyridin-3-yl)-2-((R)-3-methylmorpholin-4-yl)-8-trifluoromethyl-6,7,8,9-tetrahydro-pyrimido[1,2-a]-pyrimidin-4-one] | < 10
C[C@@H]1COCCN1c1cc(=O)n2c(n1)N(CC(=O)N1CCCCO1)[C@H](C(F)(F)F)CC2 [Example 318, (S)-2-((R)-3-Methyl-morpholin-4-yl)-9-(2-[1,2]oxazinan-2-yl-2-oxoethyl)-8-trifluoromethyl-6,7,8,9-tetrahydropyrimido-[1,2-a]pyrimidin-4-one] | < 10
CO/N=C(\CN1c2nc(N3CCOC[C@H]3C)cc(=O)n2CC[C@H]1C(F)(F)F)C1CC1 (single isomer, unassigned) [Example 307] | < 10
C[C@@H]1COCCN1c1nc2n(c(=O)c1F)[C@@H](C(F)(F)F)CCN2c1ccc(C(F)F)nc1 [Example 121, (R)-9-(6-Difluoromethylpyridin-3-yl)-3-fluoro-2-((R)-3-methylmorpholin-4-yl)-6-trifluoromethyl-6,7,8,9-tetrahydro-pyrimido[1,2-a]-pyrimidin-4-one] | < 10
Cc1nc(CN2c3nc(N4CCOC[C@H]4C)cc(=O)n3C[C@@]2(C)C(F)(F)F)no1 [Example 240, (S)-2-Methyl-7-((R)-3-methylmorpholin-4-yl)-1-(5-methyl-[1,2,4]oxadiazol-3-yl-methyl)-2-trifluoromethyl-2,3-dihydro-1H-imidazo[1,2-a]-pyrimidin-5-one] | < 10
Cc1ccc(N2c3nc(N4CCOC[C@H]4C)cc(=O)n3CC[C@H]2C(F)(F)F)cn1 [Example 83, (S)-2-((R)-3-Methyl-morpholin-4-yl)-9-(6-methylpyridin-3-yl)-8-trifluoromethyl-6,7,8,9-tetrahydro-pyrimido[1,2-a]-pyrimidin-4-one] | < 10
C[C@@H]1COCCN1c1nc2n(c(=O)c1F)CC[C@@H](C(F)(F)F)N2Cc1cncc(F)c1 [Example 57, (S)-3-Fluoro-9-(5-fluoropyridin-3-yl-methyl)-2-((R)-3-methylmorpholin-4-yl)-8-trifluoromethyl-6,7,8,9-tetrahydro-pyrimido[1,2-a]-pyrimidin-4-one] | < 10
C[C@@H]1COCCN1c1cc(=O)n2c(n1)N(Cc1ncco1)[C@H](C(F)(F)F)CC2 [Example 77, (S)-2-((R)-3-Methyl-morpholin-4-yl)-9-oxazol-2-ylmethyl-8-trifluoromethyl-6,7,8,9-tetrahydro-pyrimido[1,2-a]-pyrimidin-4-one] | 10 to 100
CON(C)C(=O)CN1c2nc(N3CCOC[C@H]3C)c(F)c(=O)n2CC[C@H]1C(F)(F)F [Example 23, 2-[(S)-7-Fluoro-8-((R)-3-methylmorpholin-4-yl)-6-oxo-2-trifluoromethyl-3,4-dihydro-2H,6H-pyrimido[1,2-a]-pyrimidin-1-yl]-N-methoxy-N-methyl-acetamide] | < 10
O=c1cc(N2CC3CCC(C2)O3)nc2n1CC[C@@H](C(F)(F)F)N2Cc1cnc(Cl)s1 [Example 165, (S)-9-(2-Chloro-thiazol-5-ylmethyl)-2-(8-oxa-3-aza-bicyclo[3.2.1]oct-3-yl)-8-trifluoromethyl-6,7,8,9-tetrahydro-pyrimido[1,2-a]-pyrimidin-4-one] | 10 to 100
C[C@@H]1COCCN1c1nc2n(c(=O)c1F)CC[C@@H](C(F)(F)F)N2Cc1ccnc(Cl)c1 [Example 41, (S)-9-(2-Chloro-pyridin-4-ylmethyl)-3-fluoro-2-((R)-3-methyl-morpholin-4-yl)-8-trifluoromethyl-6,7,8,9-tetrahydro-pyrimido[1,2-a]-pyrimidin-4-one] | < 10
C[C@@H]1COCCN1c1nc2n(c(=O)c1F)CC[C@@H](C(F)(F)F)N2CC(=O)c1ncccc1F [Example 59, (S)-3-Fluoro-9-[2-(3-fluoropyridin-2-yl)-2-oxoethyl]-2-((R)-3-methylmorpholin-4-yl)-8-trifluoromethyl-6,7,8,9-tetrahydro-pyrimido[1,2-a]-pyrimidin-4-one] | < 10
C[C@@H]1COCCN1c1cc(=O)n2c(n1)N(c1ccc(OC(F)F)nc1)[C@H](C(F)(F)F)CC2 [Example 124, (S)-9-(6-Difluoromethoxy-pyridin-3-yl)-2-((R)-3-methylmorpholin-4-yl)-8-trifluoromethyl-6,7,8,9-tetrahydro-pyrimido[1,2-a]-pyrimidin-4-one] | < 10
C[C@@H]1COCCN1c1nc2n(c(=O)c1F)CC[C@@H](C(F)(F)F)N2CC(F)C1CC1 (single isomer, unassigned) [Example 331] | < 10
COCCN1c2nc(N3CCOC[C@H]3C)c(F)c(=O)n2CC[C@H]1C(F)(F)F [Example 20, (S)-3-Fluoro-9-(2-methoxy-ethyl)-2-((R)-3-methylmorpholin-4-yl)-8-trifluoromethyl-6,7,8,9-tetrahydro-pyrimido[1,2-a]-pyrimidin-4-one] | < 10
Cc1noc(CN2c3nc(N4CCOC[C@H]4C)c(F)c(=O)n3CC[C@H]2C(F)(F)F)n1 [Example 19, (S)-3-Fluoro-2-((R)-3-methylmorpholin-4-yl)-9-(3-methyl-[1,2,4]oxadiazol-5-yl-methyl)-8-trifluoromethyl-6,7,8,9-tetrahydro-pyrimido[1,2-a]-pyrimidin-4-one] | < 10
